Source: US20250205198A1, “METHODS FOR DELIVERY OF PSYCHEDELIC MEDICATIONS BY INHALATION AND SYSTEMS FOR PERFORMING THE METHODS” (Cybin IRL Limited, priority 2022, published 2025)

Experiments:
[1] = Brain pharmacokinetics and brain to plasma ratio after intravenous (bolus) co-administration of DMT and DMT-d10 to male rats (Group 4); details: for Kp: male, Sprague Dawley, rat, iv, 1 mg/kg
[2] = Plasma pharmacokinetics after intravenous (bolus) co-administration of DMT and DMT-d10 to male rats (Group 4); details: for AUC0-1/dose: dose normalized; for t1/2: calculated 0.083 to 1.0 hr
[3] = Plasma pharmacokinetics after 20-minute snout-only inhalation (nebulized aerosol) co-administration of DMT and DMT-d10 to male rats (Group 6); details: for mean residence time (MRT) after inhalation compared to IV administration, fold greater: inhalation vs IV; for time of highest plasma concentration (first time point taken): after start of inhalation; for AUC0-1/dose: dose normalized
[4] = Plasma pharmacokinetics after oral gavage co-administration of DMT and DMT-d10 to male rats (Group 2); details: for bioavailability / AUC(0-t): male, Sprague Dawley, rat, po, 10 mg/kg; for bioavailability / AUC(0-t) / AUC0-1/dose: plasma; for time of peak plasma concentration postdose: oral administration 10 mg/kg; for AUC0-1/dose: dose normalized
[5] = brain, male rats, IV bolus 1 mg/kg, co-administered
[6] = male, Sprague Dawley, rat, plasma, iv, 1 mg/kg
[7] = plasma, male rats, IV bolus 1 mg/kg, co-administered
[8] = summary table, plasma, intravenous 1 mg/kg
[9] = plasma, inhalation 14.3 mg/kg DMT, 15.5 mg/kg DMT-d10
[10] = plasma, male rats, inhalation 14.3 mg/kg DMT + 15.5 mg/kg DMT-d10
[11] = summary table, plasma, inhalation 14.3 mg/kg DMT, 15.5 mg/kg DMT-d10
[12] = AUC0-t, male rats, oral gavage (OG) 10 mg/kg, co-administered
[13] = male, Sprague Dawley, rat, plasma, inhaled or intranasal, 15.5 mg/kg

Row | Structure (SMILES) | AUC0-t (brain) [1, 5] | Cmax (brain) [1, 5] | Kp ([1]; brain) | time of highest plasma concentration (first time point taken) ([2]; IV bolus 1 mg/kg) | MRT last [2, 6] | AUC0-1/dose ([2]; plasma, intravenous 1 mg/kg) | AUC0-1 [2, 7] | AUC(0-t) [2, 7] | AUC0-1 [2, 8] | t1/2 [2, 8] | mean residence time (MRT) after inhalation compared to IV administration, fold greater [3] | time of highest plasma concentration (first time point taken) ([3]; inhalation) | AUC0-1/dose [3, 9] | AUC0-1 [3, 11] | bioavailability [4] | AUC(0-t) [4, 12] | time of peak plasma concentration postdose [4] | AUC0-1/dose ([4]; oral 10 mg/kg) | other results
1 | CN(C)CCc1c[nH]c2ccccc12 [DMT, N,N-dimethyltryptamine, reference compound] | 1060 ng·h/g | 3430 ng/g | 9.5 | 0.083 h | 12.7 min | 112 | 112 ng·h/mL | 112 ng·h/mL | 112 ng·h/mL | 10.3 min | approximately 5 × | 0.333 h | 18.2 | 260 ng·h/mL | 1.36% | 109 ng·h/mL | 1 h | 1.52 | AUC0-inf (brain) [1, 5]: 1070 ng·h/g; t1/2 (brain) ([1]; brain, male rats, IV bolus 1 mg/kg, calculated 0.25 to 1 hr): 9.3 min; half-life [2, 6]: 10.3 min; AUC0-inf [2, 7]: 114 ng·h/mL; AUC(0-t) [3, 10]: 308 ng·h/mL; AUC(0-t) ([4]; AUC0-1, plasma, male rats, oral gavage (OG) 10 mg/kg, co-administered): 15.2 ng·h/mL; AUC(0-t) ([4]; AUC0-1, summary table, oral 10 mg/kg): 15.2 ng·h/mL
2 | [2H]C([2H])([2H])N(C([2H])([2H])[2H])C([2H])([2H])C([2H])([2H])c1c[nH]c2ccccc12 [DMT-d10, 2-(1H-indol-3-yl)-N,N-bis(methyl-d3)ethan-1-amine-1,1,2,2-d4] | 931 ng·h/g | 1490 ng/g | 12.3 | 0.083 h | 19.6 min | 75.4 | 75.4 ng·h/mL | 75.4 ng·h/mL | 75.4 ng·h/mL | 26.8 min | approximately 5 × | 0.333 h | 17.0 | 264 ng·h/mL | 1.16% | 80.2 ng·h/mL | 1 h | 0.878 | improvement of brain to plasma (B/P) ratio by deuteration ([1]; DMT-d10 vs. DMT, IV 1 mg/kg): approximately 30%; improvement of duration of exposure (MRTlast) by deuteration ([2]; DMT-d10 vs. DMT, after IV): 54.5%; t1/2 ([2]; plasma, male rats, IV bolus 1 mg/kg): 26.8 min; improvement of duration of exposure (MRTlast) by deuteration ([3]; DMT-d10 vs. DMT, after inhalation): 24.6%; increase of inhalation bioavailability by deuteration ([3]; DMT-d10 vs. DMT, inhalation): approximately 40%; inhalation bioavailability, fold greater than oral bioavailability ([3]; inhalation vs oral): approximately 20 ×; AUC0-inf [3, 13]: 384 ng·h/mL; half-life [3, 13]: 325 min; AUC0-1 [3, 10]: 264 ng·h/mL; t1/2 ([3]; summary table, plasma, inhalation 15.5 mg/kg DMT-d10, calculated 0.333 to 3.333 hr): 325 min
